This is an account of results in patent publication US11021446B2 (NOVARTIS AG, priority 2013, dated 2021).

In the test the target is T1, human Farnesoid X Receptor (FXR) ligand binding domain (GST-FXR LBD) (Homo sapiens, UniProt Q96RI1).
T1 construct: purchased Invitrogen
T1 sequence (Q96RI1 193-472 isoform Q96RI1-2): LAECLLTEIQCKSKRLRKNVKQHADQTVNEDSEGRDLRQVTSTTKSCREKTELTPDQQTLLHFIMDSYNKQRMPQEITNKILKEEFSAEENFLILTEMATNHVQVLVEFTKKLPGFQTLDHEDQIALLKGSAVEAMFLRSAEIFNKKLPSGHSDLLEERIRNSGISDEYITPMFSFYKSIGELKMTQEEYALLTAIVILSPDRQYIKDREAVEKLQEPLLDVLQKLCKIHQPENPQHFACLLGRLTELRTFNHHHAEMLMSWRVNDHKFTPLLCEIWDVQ
Put plainly: Human GST-FXR LBD co-activator interaction assay (FXR HTRF assay). The format is biochemical. The note with it: GST-FXR LBD interaction with biotin-labeled SRC-1 peptide, FRET, response relative to GW4064, read-out: FXR coactivator interaction assay (HTRF). An excerpt: Human GST-FXR LBD Co-Activator Interaction Assay
The FXR HTRF assay is a biochemical assay measuring the interaction between FXR and a coactivator protein (SRC1). The ligand-induced interaction with a coactivator protein is a critical step in transcriptional activation by FXR. Thus, this is an assay designed to measure FXR agonist activity of the test compounds.
Recombinant human Farnesoid X Receptor (FXR) ligand binding domain (amino acids 193-472) fused to glutathione S-transferase (GST) purified protein (GST-FXR LBD) was purchased (Invitrogen). The ligand-dependent interaction between GST-FXR LBD and a peptide derived from Steroid Receptor Coactivator-1 (SRC-1) was monitored by Fluorescence Resonance Energy Transfer (FRET). […] Test compounds (in DMSO solution) and detection reagents (anti-GST-Cryptate labeled antibody and Streptavidin-XL665 conjugate; CisBio) were added in assay buffer containing 50 mM KF. Plates are incubated at room temperature in the dark for 2.5 hrs before reading on an Envision (PerkinElmer) at 665 nm and 590 nm. The HTRF assay results were calculated from the 665 nm/590 nm ratio (ratio=(A665 nm/A590 nm)×10^4) and expressed in Delta F %=(Ratiosample−Rationegative)/Rationegative×100.
A negative control (without Streptavidin-XL665) was run with each assay and represented the background fluorescence. A reference FXR agonist, (E)-3-(2-chloro-4-((3-(2,6-dichlorophenyl)-5-isopropylisoxazol-4-yl)methoxy)styryl)benzoic acid (Compound GW4064), was included in each experiment as positive control. The efficacy of each test compound was compared to that of GW4064. At each concentration, the relative activity of the test compound was expressed as Response %=(Rsample−RDMSO)/(Rpositive−RDMSO), where Rsample is the HTRF response (expressed in Delta F %) for the test compound, Rpositive is the maximal response for GW4064 at saturating concentrations, and RDMSO is the response for DMSO control. The EC50 values were calculated using GraphPad Prism (GraphPad Software) using non-linear regression curve fit (log(agonist) vs. response-variable slope (four parameters)).

`Cn1nc(C(=O)N(CC(=O)Nc2cc(C(=O)O)ccc2F)Cc2ccccc2)c2c1-c1cc(F)ccc1OC2` [Compound 32, 3-(2-(N-benzyl-8-fluoro-1-methyl-1,4-dihydrochromeno[4,3-c]pyrazole-3-carboxamido)acetamido)-4-fluorobenzoic acid]: the EC50 came out at 0.74 nM. For the compound `Cn1nc(C(=O)N(CC(=O)Nc2cc(C(=O)O)ccc2F)Cc2ccccc2)c2c1-c1ccccc1OC2` [Compound 33, 3-(2-(N-benzyl-1-methyl-1,4-dihydrochromeno[4,3-c]pyrazole-3-carboxamido)acetamido)-4-fluorobenzoic acid], the EC50 stood at 1.5 nM. For the compound `Cn1nc(C(=O)N(CC(=O)Nc2cc(C(=O)O)ccc2F)Cc2ccccc2F)c2c1-c1cc(Cl)ccc1OCC2` [Compound 34, 3-(2-(9-chloro-N-(2-fluorobenzyl)-1-methyl-4,5-dihydro-1H-benzo[2,3]oxepino[4,5-c]pyrazole-3-carboxamido)acetamido)-4-fluorobenzoic acid], the EC50 was determined as 2.1 nM.

`Cn1nc(C(=O)N(CC(=O)Nc2cccc(C(=O)O)c2)Cc2ccccc2F)c2c1-c1cc(Cl)ccc1OC2` [Compound 35, 3-(2-(8-chloro-N-(2-fluorobenzyl)-1-methyl-1,4-dihydrochromeno[4,3-c]pyrazole-3-carboxamido)acetamido)benzoic Acid]: the EC50 was found to be 0.77 nM.

In the case of `Cn1nc(C(=O)N(CC(=O)Nc2cc(C(=O)O)ccc2F)CC2CCCC2)c2c1-c1cc(Cl)ccc1OC2` [Compound 36, 3-(2-(8-chloro-N-(cyclopentylmethyl)-1-methyl-1,4-dihydrochromeno[4,3-c]pyrazole-3-carboxamido)acetamido)-4-fluorobenzoic Acid], the EC50 was determined as 33 nM. The same measure for `Cn1nc(C(=O)N(CC(=O)Nc2cccc(C(=O)O)c2)CC2CCCC2)c2c1-c1cc(Cl)ccc1OC2` [Compound 37, 3-(2-(8-chloro-N-(cyclopentylmethyl)-1-methyl-1,4-dihydrochromeno[4,3-c]pyrazole-3-carboxamido)acetamido)benzoic Acid]: 24 nM.

With `Cn1nc(C(=O)N(CC(=O)Nc2cc(F)cc(C(=O)O)c2)Cc2ccccc2F)c2c1-c1cc(Cl)ccc1OC2` [Compound 38, 3-(2-(8-chloro-N-(2-fluorobenzyl)-1-methyl-1,4-dihydrochromeno[4,3-c]pyrazole-3-carboxamido)acetamido)-5-fluorobenzoic Acid], the EC50 amounted to 2.6 nM.

On to `Cc1ccc(C(=O)O)cc1NC(=O)CN(Cc1ccccc1F)C(=O)c1nn(C)c2c1COc1ccc(Cl)cc1-2` [Compound 39], for which the EC50 amounted to 5.9 nM. The same measure for `CC(CNC(=O)CN(Cc1ccccc1F)C(=O)c1nn(C)c2c1COc1ccc(Cl)cc1-2)C(=O)O` (stereo not shown) [Compound 40, 3-(2-(8-chloro-N-(2-fluorobenzyl)-1-methyl-1,4-dihydrochromeno[4,3-c]pyrazole-3-carboxamido)acetamido)-2-methylpropanoic Acid]: 8.6 nM; for `Cn1nc(C(=O)N(CC(=O)NCC(C)(C)C(=O)O)Cc2ccccc2F)c2c1-c1cc(Cl)ccc1OC2` [Compound 41, 3-(2-(8-chloro-N-(2-fluorobenzyl)-1-methyl-1,4-dihydrochromeno[4,3-c]pyrazole-3-carboxamido)acetamido)-2,2-dimethylpropanoic acid]: 4 nM; for `Cn1nc(C(=O)N(CC(=O)NCC2(C(=O)O)CC2)Cc2ccccc2F)c2c1-c1cc(Cl)ccc1OC2` [Compound 42, 1-((2-(8-chloro-N-(2-fluorobenzyl)-1-methyl-1,4-dihydrochromeno[4,3-c]pyrazole-3-carboxamido)acetamido)methyl) cyclopropanecarboxylic acid]: 2.5 nM.

Regarding `Cn1nc(C(=O)N(CCOc2ccc(C(=O)O)cc2F)Cc2ccccc2F)c2c1-c1cc(Cl)ccc1OC2` [Compound 43, 4-(2-(8-chloro-N-(2-fluorobenzyl)-1-methyl-1,4-dihydrochromeno[4,3-c]pyrazole-3-carboxamido)ethoxy)-3-fluorobenzoic Acid], the EC50 was determined as 18 nM.

As for `Cn1nc(C(=O)N(CCOc2cccc(C(=O)O)c2)Cc2ccccc2F)c2c1-c1cc(Cl)ccc1OC2` [Compound 44, 3-(2-(8-chloro-N-(2-fluorobenzyl)-1-methyl-1,4-dihydrochromeno[4,3-c]pyrazole-3-carboxamido)ethoxy)benzoic acid], the EC50 was 11 nM. The value for `Cn1nc(C(=O)N(CCOc2ccc(C(=O)O)cc2)Cc2ccccc2F)c2c1-c1cc(Cl)ccc1OC2` [Compound 45, 4-(2-(8-chloro-N-(2-fluorobenzyl)-1-methyl-1,4-dihydrochromeno[4,3-c]pyrazole-3-carboxamido)ethoxy)benzoic acid] was 15 nM; that for `Cc1cc(C(=O)O)ccc1OCCN(Cc1ccccc1F)C(=O)c1nn(C)c2c1COc1ccc(Cl)cc1-2` [Compound 46] was 3.2 nM. `Cc1cc(C(=O)O)cc(C)c1OCCN(Cc1ccccc1F)C(=O)c1nn(C)c2c1COc1ccc(Cl)cc1-2` [Compound 47, 4-(2-(8-chloro-N-(2-fluorobenzyl)-1-methyl-1,4-dihydrochromeno[4,3-c]pyrazole-3-carboxamido)ethoxy)-3,5-dimethylbenzoic acid]: the EC50 was 0.53 nM. The value for `Cn1nc(C(=O)N(CCOc2cc(C(=O)O)ccc2F)Cc2ccccc2F)c2c1-c1cc(Cl)ccc1OC2` [Compound 48, 3-(2-(8-chloro-N-(2-fluorobenzyl)-1-methyl-1,4-dihydrochromeno[4,3-c]pyrazole-3-carboxamido)ethoxy)-4-fluorobenzoic acid] was 61 nM. Turning to `Cc1cc(C(=O)O)cc(C)c1OCCN(CC1CCCC1)C(=O)c1nn(C)c2c1COc1ccc(Cl)cc1-2` [Compound 49, 4-(2-(8-chloro-N-(cyclopentylmethyl)-1-methyl-1,4-dihydrochromeno[4,3-c]pyrazole-3-carboxamido)ethoxy)-3,5-dimethylbenzoic acid], the EC50 amounted to 17 nM. The same measure for `Cn1nc(C(=O)N(CCOc2c(F)cc(C(=O)O)cc2F)Cc2ccccc2F)c2c1-c1cc(Cl)ccc1OC2` [Compound 50, 4-(2-(8-chloro-N-(2-fluorobenzyl)-1-methyl-1,4-dihydrochromeno[4,3-c]pyrazole-3-carboxamido)ethoxy)-3,5-difluorobenzoic acid]: 11 nM; for `Cn1nc(C(=O)N(CCOc2ccc(C(=O)O)cc2C(F)(F)F)Cc2ccccc2F)c2c1-c1cc(Cl)ccc1OC2` [Compound 51, 4-(2-(8-chloro-N-(2-fluorobenzyl)-1-methyl-1,4-dihydrochromeno[4,3-c]pyrazole-3-carboxamido)ethoxy)-3-(trifluoromethyl)benzoic acid]: 9.8 nM. The value for `Cn1nc(C(=O)N(CCOc2c(F)cc(C(=O)O)cc2F)Cc2ccccc2)c2c1-c1cc(Cl)ccc1OC2` [Compound 52, 4-(2-(N-benzyl-8-chloro-1-methyl-1,4-dihydrochromeno[4,3-c]pyrazole-3-carboxamido)ethoxy)-3,5-difluorobenzoic acid] was 2.6 nM; that for `Cn1nc(C(=O)N(CCOc2c(F)cc(C(=O)O)cc2F)Cc2ccccc2F)c2c1-c1cc(F)ccc1OC2` [Compound 53, 3,5-difluoro-4-(2-(8-fluoro-N-(2-fluorobenzyl)-1-methyl-1,4-dihydrochromeno[4,3-c]pyrazole-3-carboxamido)ethoxy)benzoic acid] was 17 nM; that for `Cn1nc(C(=O)N(CCOc2c(F)cc(C(=O)O)cc2F)Cc2ccccc2)c2c1-c1cc(F)ccc1OC2` [Compound 54, 4-(2-(N-benzyl-8-fluoro-1-methyl-1,4-dihydrochromeno[4,3-c]pyrazole-3-carboxamido)ethoxy)-3,5-difluorobenzoic acid] was 21 nM. The same measure for `Cn1nc(C(=O)N(CCOc2ccc(C(=O)O)cc2F)Cc2ccccc2)c2c1-c1cc(Cl)ccc1OC2` [Compound 55, 4-(2-(N-benzyl-8-chloro-1-methyl-1,4-dihydrochromeno[4,3-c]pyrazole-3-carboxamido)ethoxy)-3-fluorobenzoic Acid]: 13 nM.

As to `Cn1nc(C(=O)N(CCOc2ccc(C(=O)O)cc2F)Cc2ccccc2)c2c1-c1cc(F)ccc1OC2` [Compound 56, 4-(2-(N-benzyl-8-fluoro-1-methyl-1,4-dihydrochromeno[4,3-c]pyrazole-3-carboxamido)ethoxy)-3-fluorobenzoic acid], the EC50 was determined as 40 nM.
